PMC6539525, “Design, Synthesis, and Mechanism of Dihydroartemisinin–Coumarin Hybrids as Potential Anti-Neuroinflammatory Agents” (Molecules, 2019)
Read-outs that look alike come from different tables or passages of the source.

Columns and labels:
[1] = system: MDA-MB-231 cells; assay: MTT cytotoxicity in MDA-MB-231 cells; type: cell-based; settings: Homo sapiens
Experimental: (§1) As the anti-neuroinflammatory agents for cancer patients, all newly synthesized compounds were evaluated in vitro for antitumor activity against human breast cancer cell line MDA-MB-231, colorectal cancer cells HT-29 and HCT-116, and lung cancer cell line A549 by using the standard MTT method, respectively. Doxorubicin (DOX) and DHA were used as the reference standard. Additionally, owing to the rapid proliferation, the tumor cells actually was always in hypoxia condition. Therefore, the in vitro cytotoxicity was evaluated in two different conditions (hypoxia and normoxia).
(§2) After recovery, the cells were cultured in 96-well plates for 24 h at 37 °C in a humidified atmosphere with 95% air and 5% CO2. After treated with different tested compounds, the hypoxia groups were placed in a sealed hypoxia incubator chamber (Stemcell Technologies, Inc., Vancouver, BC, Canada) filled with 5% CO2 and 95% N2 for 24 h, and then transferred to the incubator chamber filled with air for 72 h. On the contrary, the normoxia groups were cultured under air condition for 96h.
(§3) Cancer cells HT-29 (Human Colorectal Adenocarcinoma cell line), MDA-MB-231 (Human Breast Cancer cell line), HCT-116 (Human Colorectal Carcinoma cell line), and A549 (Human Lung Adenocarcinomic cell line) were from ATCC.
(§4) When the adherent cells reached 80% confluence, the culture medium was discarded. The cells were digested by trypsin and collected after centrifugation. The fresh culture medium was gently blown into it to form single-cell suspension. Cell suspension will be diluted to 1.5–3 × 10^4 cells/mL. Each hole of 96-well plates was added 100 μL cell suspension and incubated for 24 h (5% CO2; 37 °C). Then the holes were added different concentrations of tested compounds. The early screening concentration is set to 100 μM, 50 μM, 25 μM, 12.5 μM, and 6.25 μM. Three replicates were made for each concentration of the tested compounds. After the cells were grown for 96h, 20 μL MTT (5 mg/mL) was added to each well and incubated for 4 h. The medium was discarded and each well was added 100 μL DMSO to dissolve the formazan blue. Absorbance was measured at 570 nm with a microplate reader (Synergy-HT, BioTek Instruments, Winooski, VT, USA).
(§5) Hypoxia condition: The cells were treated with different concentration of tested compounds, placed in hypoxia chamber (Catalog Number 27310, Stemcell Technologies, Inc., Vancouver, BC, Canada), and incubated for 24 h ([…]; 37 °C). Then the cells were placed in normoxia condition (5% CO2; 37 °C) and incubated for 72 h.

[2] = system: A549 cells; assay: MTT cytotoxicity in A549 cells; type: cell-based; settings: Homo sapiens
Experimental: as §1, §2, §3, §4, §5

[3] = MTT cytotoxicity in N9 cells; type: cell-based, murine; settings: mouse, N9 microglial cells, cytotoxic activity
Experimental: (§6) The anti-neuroinflammatory activity of DCH was evaluated and then the representative compounds were selected for the further study. […] In addition, in order to exclude the death influence, MTT-IC20 of all the compounds were measured. […] The exact reason was still unclear, but we supposed that it might be related to the homeostasis of cells. The tumor cells actually were always in hypoxia condition, in which DCH could promote the cytotoxic activity against tumor cells. In brief, DCH could reduce the release of NO caused by LPS-induced microglial cells.
as §4
(§7) N9 cells, which were in the logarithmic phase, were incubated for 24 h by adherent culture. Subsequently, the medium was changed to new one without serum. The cells were treated with different concentration of tested compounds. After specific time in the LPS condition, the supernatants were collected and analyzed.

[4] = system: HCT-116 cells; assay: MTT cytotoxicity in HCT-116 cells; type: cell-based; settings: Homo sapiens
Experimental: as §1, §2, §3, §4, §5

[5] = system: HT-29 cells; assay: MTT cytotoxicity in HT-29 cells; type: cell-based, Human; settings: Homo sapiens, MTT
Experimental: as §1
After recovery, the cells were cultured in 96-well plates for 24 h at 37 °C in a humidified atmosphere with 95% air and 5% CO2. After treated with different tested compounds, the hypoxia groups were placed in a sealed hypoxia incubator chamber (Stemcell Technologies, Inc., Vancouver, BC, Canada) filled with 5% CO2 and 95% N2 for 24 h, and then transferred to the incubator chamber filled with air for 72 h. […]
as §3
as §4, with “After the cells were grown for 96h, 20 μL MTT (5 mg/mL) was added to each well and incubated for 4 h.” left out, “USA). […]” for “USA).”

[6] = system: NO release of LPS-induced microglial N9 cells; assay: Inhibition of NO release in LPS-induced N9 cells (Griess); type: cell-based, murine; settings: Mus musculus, 1 μg/mL LPS for 48 h, NO level in medium
Experimental: as §6, §7
The nitrite levels in medium were determined by Griess reaction. The absorbance was measured at 540 nm using a microplate reader.

[7] = MDA-MB-231, hypoxia 24 h then normoxia 72 h, read-out: IC50 MDA-MB-231 Hypoxia
[8] = MDA-MB-231, normoxia 96 h, read-out: IC50 MDA-MB-231 Normoxia
[9] = A549, hypoxia 24 h then normoxia 72 h, read-out: IC50 A549 Hypoxia
[10] = A549, normoxia 96 h, read-out: IC50 A549 Normoxia
[11] = HCT-116, hypoxia 24 h then normoxia 72 h, read-out: IC50 HCT-116 Hypoxia
[12] = HCT-116, normoxia 96 h, read-out: IC50 HCT-116 Normoxia
[13] = HT-29, hypoxia 24 h then normoxia 72 h, read-out: IC50 HT-29 Hypoxia
[14] = HT-29, normoxia 96 h, read-out: IC50 HT-29 Normoxia

| SMILES | IC50 [1, 7] | IC50 [1, 8] | melting point | IC50 [2, 9] | IC50 [2, 10] | IC20 [3] | IC50 [4, 11] | IC50 [4, 12] | IC50 [5, 13] | IC50 [5, 14] | IC50 [6] |
| --- | --- | --- | --- | --- | --- | --- | --- | --- | --- | --- | --- |
| C[C@H]1[C@@H](OCCc2cn(Cc3cc4cc(Cl)cc(Cl)c4oc3=O)nn2)O[C@@H]2O[C@@]3(C)CC[C@H]4[C@H](C)CC[C@@H]1[C@@]24OO3 [2d, 6,8-dichloro-3-((4-(2-((10S)-dihydroartemisininoxy)ethyl)-1H-1,2,3-triazol-1-yl)-methyl)-2H-1-chromen-2-one] | 47.9 µM | 88.5 µM | 101 to 103 °C | 69.7 µM | 96.5 µM | > 10 µM | 46.5 µM | 53.2 µM | 30.8 µM | 19.5 µM | 1.35 µM |
| C[C@H]1[C@@H](OCCc2cn(Cc3cc4cc(Br)cc(Br)c4oc3=O)nn2)O[C@@H]2O[C@@]3(C)CC[C@H]4[C@H](C)CC[C@@H]1[C@@]24OO3 [2e, 6,8-dibromo-3-((4-(2-((10S)-dihydroartemisininoxy)ethyl)-1H-1,2,3-triazol-1-yl)-methyl)-2H-1-chromen-2-one] | 44.1 µM | > 100 µM | 93 to 95 °C | 79.4 µM | > 100 µM | > 10 µM | 86.5 µM | 94.2 µM | 13.9 µM | 38.5 µM | 0.94 µM |
| Cc1cc(C)c2c(OCc3cn(CCO[C@H]4O[C@@H]5O[C@@]6(C)CC[C@H]7[C@H](C)CC[C@@H]([C@H]4C)[C@@]57OO6)nn3)cc(=O)oc2c1 [5l] | > 100 µM | > 100 µM | 111 to 113 °C | > 100 µM | > 100 µM | 7.13 µM | > 100 µM | > 100 µM | 3.76 µM | 2.78 µM | 3.36 µM |
| Cc1cc(C)c2oc(=O)cc(OCc3cn(CCO[C@H]4O[C@@H]5O[C@@]6(C)CC[C@H]7[C@H](C)CC[C@@H]([C@H]4C)[C@@]57OO6)nn3)c2c1 [5m] | 13 µM | 14.2 µM | 111 to 113 °C | 1.28 µM | 2.67 µM | 1.04 µM | 44.8 µM | 62.8 µM | 5.89 µM | 12.9 µM | 1.08 µM |
| Cc1cccc2c(OCc3cn(CCO[C@H]4O[C@@H]5O[C@@]6(C)CC[C@H]7[C@H](C)CC[C@@H]([C@H]4C)[C@@]57OO6)nn3)cc(=O)oc12 [5o] | 16.5 µM | 37.4 µM | 84 to 86 °C | 45.1 µM | 50.4 µM | > 10 µM | 38.5 µM | 29.7 µM | 21.2 µM | 16.1 µM | 0.57 µM |
| C[C@H]1[C@@H](OCCCn2cc(COc3cc(=O)oc4ccccc34)nn2)O[C@@H]2O[C@@]3(C)CC[C@H]4[C@H](C)CC[C@@H]1[C@@]24OO3 [6j] | 33.4 µM | 67.4 µM | 74 to 76 °C | 49 µM | 53.4 µM | > 10 µM | 32.8 µM | 25.9 µM | 7.42 µM | 10.5 µM | 0.29 µM |
| Cc1ccc2c(OCc3cn(CCCO[C@H]4O[C@@H]5O[C@@]6(C)CC[C@H]7[C@H](C)CC[C@@H]([C@H]4C)[C@@]57OO6)nn3)cc(=O)oc2c1 [6k] | 14.5 µM | 38.6 µM | 80 to 82 °C | 9.49 µM | 14.9 µM | > 10 µM | 33.7 µM | 28.1 µM | 5.32 µM | 6.85 µM | 1.91 µM |
| Cc1cc(C)c2oc(=O)cc(OCc3cn(CCCO[C@H]4O[C@@H]5O[C@@]6(C)CC[C@H]7[C@H](C)CC[C@@H]([C@H]4C)[C@@]57OO6)nn3)c2c1 [6m] | 18.7 µM | 24.6 µM | 90 to 92 °C | 20.1 µM | 27.9 µM | > 10 µM | 93.5 µM | 42.1 µM | 5.9 µM | 22.4 µM | 5.8 µM |
| Cc1ccc2c(OCc3cn(CCCO[C@H]4O[C@@H]5O[C@@]6(C)CC[C@H]7[C@H](C)CC[C@@H]([C@H]4C)[C@@]57OO6)nn3)cc(=O)oc2c1C [6n] | 10.8 µM | 13.3 µM | 115 to 117 °C | 0.039 µM | 30.4 µM | 6.53 µM | 33.7 µM | 22.5 µM | 4.19 µM | 9.16 µM | 1.13 µM |
| Cc1cccc2c(OCc3cn(CCCO[C@H]4O[C@@H]5O[C@@]6(C)CC[C@H]7[C@H](C)CC[C@@H]([C@H]4C)[C@@]57OO6)nn3)cc(=O)oc12 [6o] | 18.6 µM | 47.6 µM | 143 to 145 °C | 39.9 µM | 78.1 µM | > 10 µM | 42.4 µM | 12.1 µM | 29 µM | 81.6 µM | 1.43 µM |
